The values that follow come from PMC9934367, “Functional impact of subunit composition and compensation on Drosophila melanogaster nicotinic receptors–targets of neonicotinoids” (PLOS Genetics, 2023).

Where two headings read alike, the source gives them in different places.

One assay has as its target T1, Dα3/Dβ1/Dβ2 nAChR (Drosophila melanogaster, UniProt P04755+P25162+Q9W3G6).
T1 construct: Dβ1 (NP_523927); Dβ2 (NP_524483); expressed in transfected cells; host or cells: Xenopus laevis oocytes (cRNA injection)
Nature of the assay: Voltage-clamp electrophysiology, nAChR expressed in X. laevis oocytes. It is filed as cell-based, D. melanogaster. The following applies: Dα3/Dβ1/Dβ2 nAChR. As to the method: (§1) cDNAs of the nAChR subunits and co-factors were cloned into pcDNA3.1 (+) vector (Thermo Fisher Scientific). The accession numbers of the nAChR subunits and cofactors are as follows: Dα1 (NP_524481), Dα2 (NP_524482), Dα3 (NP_525079), Dα4 (CAB77445), Dβ1 (NP_523927), Dβ2 (NP_524483), Dβ3 (NP_525098), DmRIC-3 (CAP16647), DmUNC-50 (NP_649813), and DmTMX3 (NP_648847). cRNAs were prepared using the mMESSAGE mMACHINE T7 ULTRA Transcription Kit (Thermo Fisher Scientific, #AM1345) according to the manual with the cDNA template which was cut with appropriate restriction enzymes at the 3’ end of the cDNA.
(§2) We minimised the use of X. laevis according to the UK Animals (Scientific Procedures) Act, 1986. […] Oocytes were defolliculated after collagenase treatment in Ca^2+-free standard oocyte saline (Ca^2+-free SOS). cRNAs of the nAChR subunits and co-factors mixed at a concentration of 0.1 mg/mL was injected into oocytes at a volume of 50 nL. Then the oocytes were incubated in the incubation medium (SOS supplemented with sodium pyruvate (Nacalai Tesque, #13058–12), penicillin-streptomycin (MilliporeSigma, #P4333), gentamycin (Nacalai Tesque, #16672–04), and 4% horse serum (Thermo Fisher Scientific, #26050–070) for 3−4 days prior to electrophysiology.
(§3) Each defolliculated X. laevis oocyte was secured in a Perspex recording chamber and perfused with the standard oocyte saline (SOS) containing 0.5 μM atropine (SOSA) at a flow rate of 7−10 mL/min [48]. Two glass electrodes filled with 2 M KCl were impaled into each oocyte and the membrane potential was clamped at -100 mV. […] The peak amplitude of the response was measured and analysed by pCLAMP (Molecular Devices, USA).
(§4) Y=Imax/1+10^(logEC50‐X)nH
(§5) Where Y is the normalised response, X is log[ligand (M)], EC50 is the half maximal concentration (M), Imax is the maximum normalised response and nH is the Hill coefficient.

In another assay the target is T2, Dα3/Dβ1 nAChR (Drosophila melanogaster, UniProt P04755+Q9W3G6).
T2 construct: Dβ1 (NP_523927); expressed in transfected cells; host or cells: Xenopus laevis oocytes (cRNA injection)
The assay is described as follows: cell-based. It is filed as cell-based, D. melanogaster. Conditions: Dα3/Dβ1 nAChR, mean ± standard error (n = 5). As to the method:
as §1, §2, §3, §4, §5

The subject of a further assay is D. melanogaster larvae. The assay is described as follows: Pupariation rate assay. In kind it is in vivo. The protocol: All flies were raised at 25°C under 12 h/12 h light/dark cycle. The animals were reared on standard fly food containing 5.5 g agar, 100 g glucose, 40 g dry yeast, 90 g cornflour, 3 mL propionic acid, and 3.5 mL 10% butyl p-hydroxybenzoate (Nacalai Tesque, Japan, #06327–15) in 70% ethanol per liter. The control strain was w^1118, and transgenic flies are as follows: UAS-nAChRα1 RNAi (#28688) was obtained from the Bloomington Drosophila Stock Center (BDSC); UAS-nAChRα2 RNAi (UAS-Dα2 RNAi, #10760), UAS-nAChRα3 RNAi (UAS-Dα3 RNAi, #101806); UAS-dicer2 (#60009) were obtained from the Vienna Drosophila Resource Center (VDRC); and UAS-mCD8::GFP (#108068) was obtained from Kyoto Stock Center. elav-Gal4 (3A3) was obtained from Michael B. O’Connor. nAChRα3-knock-in 2A-Gal4 (Dα3-knock-in T2A-Gal4) was generated by the CRISPR/Cas9 system as described in detail below.
Eggs were laid on grape juice plates with yeast paste at 25°C for 6 h. […] After a week of incubation at 25°C, pupal numbers were scored in each vial.

Assay [1] addresses Dα2/Dα3/Dα4/Dβ1/Dβ2 nAChR. The following applies: mean ± standard error (n = 5); for Imax: normalised to maximum ACh response. As to the method:
as §1, §2, §3, §4, §5

The target of assay [2] is Dα1/Dα2/Dα4/Dβ1/Dβ2 nAChR. The following applies: mean ± standard error (n = 5); for Imax: normalised to maximum ACh response. The protocol: as §1, §2, §3, §4, §5
Assay [3] has as its target Dα1/Dα3/Dα4/Dβ1/Dβ2 nAChR. Conditions: mean ± standard error (n = 5); for Imax: normalised to maximum ACh response. As to the method:
as §1, §2, §3, §4, §5

The mark [4] stands for this setting: efficacy, mean ± standard error (n = 5).
The mark [5] stands for this setting: normalised to maximum ACh response, mean ± standard error (n = 5).
Setting [6] is: RNAi of Dα1 (pan-neuronal knockdown) vs control.
Where [7] appears, read: RNAi of Dα2 (pan-neuronal knockdown) vs control.
[8] abbreviates: normalised to maximum ACh response.

Consider `CC(=O)OCC[N+](C)(C)C` [ACh, acetylcholine], for which the Imax at Dα3/Dβ1/Dβ2 nAChR (setting [4]) and at Dα3/Dβ1 nAChR (efficacy) was 1 in each case.
As usually defined, the pEC50 is the EC50 on a negative log10 scale, so that one unit is a factor of ten. Low readings indicate a large EC50, high ones a small EC50. Turning to `CN/C(=N\[N+](=O)[O-])NCc1cnc(Cl)s1` [Clothianidin, clothianidin], the Imax worked out at 0.492 ± 0.016 on Dα3/Dβ1/Dβ2 nAChR (setting [5]); 0.492 on Dα3/Dβ1/Dβ2 nAChR (setting [4]); 0.912 ± 0.041 in assay [1]; 1.001 ± 0.031 in assay [2]; 1.001 in assay [2] (listed as clothianidin); 0.425 ± 0.008 in assay [3]. The values for the Imax (in assay [3] (listed as clothianidin); on Dα3/Dβ1 nAChR (setting [8]); at Dα3/Dβ1 nAChR (efficacy)) were 0.425, 0.691 ± 0.013 and 0.691, respectively. In addition, the EC50 on Dα3/Dβ1/Dβ2 nAChR (read-out: EC50) was 34.7 nM; on Dα3/Dβ1 nAChR it was 28.8 nM. For the same compound, the “toxicity in larvae, effect of RNAi” value with D. melanogaster larvae (setting [6]) and with D. melanogaster larvae (setting [7]) was “reduced toxicity” throughout. Further, the pEC50 in assay [1] came out at 7.11 ± 0.12; in assay [2] it was 6.72 ± 0.09; in assay [3], 6.94 ± 0.06.
For the compound `O=[N+]([O-])NC1=NCCN1Cc1ccc(Cl)nc1` [Imidacloprid, imidacloprid], the Imax turned out to be 0.039 ± 0.002 on Dα3/Dβ1/Dβ2 nAChR (setting [5]); 0.039 on Dα3/Dβ1/Dβ2 nAChR (setting [4]); 0.027 ± 0.002 in assay [1]; 0.027 in assay [1] (listed as imidacloprid); 0.172 ± 0.020 in assay [2]; 0.101 ± 0.008 in assay [3]. Besides, the figures for the Imax on Dα3/Dβ1 nAChR (setting [8]) and at Dα3/Dβ1 nAChR (efficacy) were 0.032 ± 0.003 and 0.032, respectively. Besides, the EC50 on Dα3/Dβ1/Dβ2 nAChR (read-out: EC50) was 5.25 nM; on Dα3/Dβ1 nAChR, 4.79 nM. Moreover, the “toxicity in larvae, effect of RNAi” value in the assay on D. melanogaster larvae (setting [6]) and in the assay on D. melanogaster larvae (setting [7]) was “reduced toxicity” throughout. The pEC50 was found to be 7.40 ± 0.20 in assay [1], 6.48 ± 0.28 in assay [2] and 7.30 ± 0.17 in assay [3].
Consider `N#C/N=C1\SCCN1Cc1ccc(Cl)nc1` [Thiacloprid, thiacloprid], for which the EC50 at Dα3/Dβ1/Dβ2 nAChR (mean ± standard error (n = 5), read-out: pEC50 (converted)) is 4.79 nM; on Dα3/Dβ1 nAChR, 15.8 nM. The Imax on Dα3/Dβ1/Dβ2 nAChR (setting [5]) turned out to be 0.022 ± 0.003; at Dα3/Dβ1/Dβ2 nAChR (setting [4]) it was 0.022; in assay [1], 0.018 ± 0.002; in assay [1] (listed as thiacloprid) it was 0.018; in assay [2] it was 0.066 ± 0.007; in assay [3] it was 0.026 ± 0.001. In addition, the Imax is on record as 0.016 ± 0.001 at Dα3/Dβ1 nAChR (setting [8]) and 0.016 on Dα3/Dβ1 nAChR (efficacy). The “toxicity in larvae, effect of RNAi” value in the assay with D. melanogaster larvae (setting [6]) and in the assay on D. melanogaster larvae (setting [7]) was “reduced toxicity” in each case. Moreover, the values for the pEC50 in assay [1], in assay [2] and in assay [3] were 7.99 ± 0.20, 7.01 ± 0.19 and 7.96 ± 0.10, respectively.
